Source: ChEMBL document CHEMBL3779770, “Synthesis, biological evaluation and molecular docking study of some novel indole and pyridine based 1,3,4-oxadiazole derivatives as potential antitubercular agents” (Bioorg Med Chem Lett, 2016)
Values after ≈ are worked out from the molar mass of the structure shown.

What was measured:
[1] = Selectivity index, ratio of GI50 for human A549 cells to MIC for dormant state Mycobacterium bovis BCG ATCC 35734; type: toxicity, cell-based; settings: read-out: Selectivity Index
[2] = Selectivity index, ratio of GI50 for human PANC1 cells to MIC for active state Mycobacterium bovis BCG ATCC 35734; type: toxicity, cell-based, PANC-1; settings: read-out: Selectivity Index
[3] = Selectivity index, ratio of GI50 for human PANC1 cells to MIC for dormant state Mycobacterium bovis BCG ATCC 35734; type: toxicity, cell-based, PANC-1; settings: read-out: Selectivity Index
Escherichia coli = experiment: Antibacterial activity against Escherichia coli NCIM 2688 after 8 hrs; type: functional, organism-based; settings: NCIM 2688, 8 h
Pseudomonas fluorescens = experiment: Antibacterial activity against Pseudomonas fluorescens NCIM 2036 after 8 hrs; type: functional, organism-based; settings: NCIM 2036, 8 h
Staphylococcus aureus = experiment: Antibacterial activity against Staphylococcus aureus NCIM 2010 after 12 hrs; type: functional, organism-based; settings: NCIM 2010, 12 h
Bacillus subtilis = experiment: Antibacterial activity against Bacillus subtilis NCIM 2079 after 12 hrs; type: functional, organism-based; settings: NCIM 2079, 12 h
[4] = test system: Mycobacterium tuberculosis; experiment: Antitubercular activity against active state Mycobacterium tuberculosis H37Ra assessed as viable cells after 8 days by XTT reduction menadione assay; type: functional, organism-based; settings: 192 h
[5] = test system: Mycobacterium tuberculosis; experiment: Antitubercular activity against dormant state Mycobacterium tuberculosis H37Ra assessed as viable cells after 12 days by XTT reduction menadione assay; type: functional, organism-based; settings: 288 h
[6] = (§1) Cytotoxicity against human HeLa cells after 72 hrs by MTT assay; type: cell-based; settings: HeLa cells
HeLa = experiment: as §1; type: cell-based; settings: hela, 72 h
[7] = (§2) Cytotoxicity against human A549 cells after 48 hrs by MTT assay; type: cell-based; settings: A549 cells
A549 = experiment: as §2; type: cell-based; settings: a549, 48 h
[8] = Cytotoxicity against human PANC1 cells after 48 hrs by MTT assay; type: cell-based, PANC-1; settings: for GI50 at 48 h: PANC1 cells; for GI90: panc-1, 48 h
[9] = Selectivity index, ratio of GI50 for human HeLa cells to MIC for active state Mycobacterium bovis BCG ATCC 35734; type: toxicity, cell-based; settings: read-out: Selectivity Index
[10] = Selectivity index, ratio of GI50 for human HeLa cells to MIC for dormant state Mycobacterium bovis BCG ATCC 35734; type: toxicity, cell-based; settings: read-out: Selectivity Index
[11] = Selectivity index, ratio of GI50 for human A549 cells to MIC for active state Mycobacterium bovis BCG ATCC 35734; type: toxicity, cell-based; settings: read-out: Selectivity Index

| Compound | selectivity ratio [1] | selectivity ratio [2] | selectivity ratio [3] | IC50 (Escherichia coli) [µg/mL] | MIC (Escherichia coli) [µg/mL] | IC50 (Pseudomonas fluorescens) [µg/mL] | MIC (Pseudomonas fluorescens) [µg/mL] | IC50 (Staphylococcus aureus) [µg/mL] | MIC (Staphylococcus aureus) [µg/mL] | IC50 (Bacillus subtilis) [µg/mL] | MIC (Bacillus subtilis) [µg/mL] | IC50 [4] [µg/mL] | MIC [4] [µg/mL] | IC50 [5] [µg/mL] | MIC [5] [µg/mL] | GI50 at 72 h [6] [µg/mL] | GI90 (HeLa) [µg/mL] | selectivity ratio [9] | selectivity ratio [10] | selectivity ratio [11] | other results |
| --- | --- | --- | --- | --- | --- | --- | --- | --- | --- | --- | --- | --- | --- | --- | --- | --- | --- | --- | --- | --- | --- |
| O=C(/C=C\c1ccccc1[N+](=O)[O-])N1N=C(c2ccncc2)OC1c1c[nH]c2ccccc12 (centres undefined) | > 35.3 | > 29.1 | > 35.3 | 18.4 (≈ 41.8 µM) | > 256 | 19.2 (≈ 43.7 µM) | > 256 | 21.1 (≈ 47.9 µM) | > 256 | 24.2 (≈ 55.2 µM) | > 256 | > 30 | > 30 | > 30 | > 30 | > 30 | > 30 | > 29.1 | > 35.3 | > 29.1 | GI50 at 48 h [7]: > 30 µg/mL; GI90 (A549): > 30 µg/mL; GI50 at 48 h [8]: > 30 µg/mL; GI90 [8]: > 30 µg/mL |
| NNC(=O)c1ccncc1 [ISONIAZID] | > 2560 | > 3030 | > 2560 |  |  |  |  |  |  |  |  | 0.0013 (≈ 0.00948 µM) | 0.031 (≈ 0.226 µM) | 0.0014 (≈ 0.0102 µM) | 0.034 (≈ 0.248 µM) |  |  | > 3030 | > 2560 | > 3030 |  |
| CO[C@H]1/C=C/O[C@@]2(C)Oc3c(C)c(O)c4c(O)c(c(/C=N/N5CCN(C)CC5)c(O)c4c3C2=O)NC(=O)/C(C)=C\C=C\[C@H](C)[C@H](O)[C@@H](C)[C@@H](O)[C@@H](C)[C@H](OC(C)=O)[C@@H]1C [RIFAMPIN] | > 2700 | > 2860 | > 2700 |  |  |  |  |  |  |  |  | 0.0016 (≈ 0.00194 µM) | 0.041 (≈ 0.0498 µM) | 0.0017 (≈ 0.00207 µM) | 0.045 (≈ 0.0547 µM) |  |  | > 2860 | > 2700 | > 2860 |  |
| O=C(/C=C\c1ccc(Cl)cc1Cl)N1N=C(c2ccncc2)OC1c1c[nH]c2ccccc12 (centres undefined) | > 6.03 | > 5.8 | > 6.03 | > 256 | > 256 | > 256 | > 256 | > 256 | > 256 | > 256 | > 256 | 29.3 (≈ 63.3 µM) | > 30 | 27.5 (≈ 59.4 µM) | > 30 | 29.3 (≈ 63.3 µM) | > 30 | 5.68 | 5.9 | > 5.8 | GI50 at 48 h [7]: > 30 µg/mL; GI90 (A549): > 30 µg/mL; GI50 at 48 h [8]: > 30 µg/mL; GI90 [8]: > 30 µg/mL |
| O=C(/C=C\c1ccccc1O)N1N=C(c2ccncc2)OC1c1c[nH]c2ccccc12 (centres undefined) | > 25.2 | > 31.9 | > 25.2 | 21.7 (≈ 52.9 µM) | > 256 | 22.5 (≈ 54.9 µM) | 192 (≈ 469 µM) | 23.3 (≈ 56.8 µM) | > 256 | 22.1 (≈ 53.9 µM) | > 256 | > 30 | > 30 | > 30 | > 30 | 26.8 (≈ 65.3 µM) | > 30 | 28.5 | 22.5 | > 31.9 | GI50 at 48 h [7]: > 30 µg/mL; GI90 (A549): > 30 µg/mL; GI50 at 48 h [8]: > 30 µg/mL; GI90 [8]: > 30 µg/mL |
| O=C(/C=C\c1cccc(F)c1)N1N=C(c2ccncc2)OC1c1c[nH]c2ccccc12 (centres undefined) |  |  |  | > 256 | > 256 | > 256 | > 256 | > 256 | > 256 | > 256 | > 256 | > 30 | > 30 | > 30 | > 30 | > 30 | > 30 |  |  |  | GI50 at 48 h [7]: > 30 µg/mL; GI90 (A549): > 30 µg/mL; GI50 at 48 h [8]: > 30 µg/mL; GI90 [8]: > 30 µg/mL |
| O=C(/C=C\c1ccc([N+](=O)[O-])cc1)N1N=C(c2ccncc2)OC1c1c[nH]c2ccccc12 (centres undefined) | > 12.7 | > 12 | > 12.7 | 9.46 (≈ 21.5 µM) | 28.2 (≈ 64.3 µM) | 11.9 (≈ 27 µM) | 29.1 (≈ 66.1 µM) | 12.7 (≈ 28.8 µM) | 30.6 (≈ 69.7 µM) | 13.5 (≈ 30.6 µM) | 31.4 (≈ 71.6 µM) | > 30 | > 30 | > 30 | > 30 | > 30 | > 30 | > 12 | > 12.7 | > 12 | GI50 at 48 h [7]: > 30 µg/mL; GI90 (A549): > 30 µg/mL; GI50 at 48 h [8]: > 30 µg/mL; GI90 [8]: > 30 µg/mL |
